In patent US20060121083A1 (priority 2003, published 2006):
In brackets after ≈: the same amount, converted by molar mass. Like-named read-outs stand apart in the source and are kept apart here. Ends that are not written are not given here.

What was measured:
[1] = tested on: Methicillin-resistant S. epidermidis clinical strain; test: MIC by microbroth dilution method, MRSE; type: cell-based; conditions: broth-micro dilution
Description: (§1) Bacterial strains: Methicillin-resistant S. aureus (abbreviated […]) ATCC 43300 was commercially purchased from Oxoid S.p.A., Milan, Italy. Methicillin-resistant S. epidermidis (abbreviated MRSE) is a clinical strain from the Institute of Infectious Diseases and Public Health, University of Ancona, Italy.
(§2) Bacterial strain antibiotic suscepdbilty analysis: The antimicrobial susceptibilities of the bacterial strains were determined by using the microbroth dilution method, according to the procedures outlined by the National Committee for Clinical Laboratory Standards (U.S.A.). The minimal inhibitory concentration (MIC) was taken as the lowest antibiotic concentration at which observable growth was inhibited. Experiments were performed in triplicate.
(§3) Statistical analysis: MIC values are presented as the geometric mean of three separate experiments. […] Significance was accepted when the P value was less than/equal to 0.05.

[2] = tested on: methicillin-resistant S. epidermidis (MRSE); type: in vivo; conditions: rats, MRSE challenge
Excerpt: (§4) Animals: Adult male Wistar rats, 250-300 gr (I.N.R.C.A. I.R.R.C.S. animal facility, Ancona) were used, with 15 animals per experimental group.
(§5) Mammalian graft infection model: Rats were anesthetized and their hair of the back was shaved and the skin cleansed with 10 percent povidone-iodine solution. One subcutaneous pocket was made on each side of the median line by a 1.5 cm incision. Aseptically, 1 square centimeter sterile albumin-sealed Dacron™ grafts (Albograft™, Sorin Biomedica Cardio, S.p.A., Saluggia VC, Italy) were implanted into the pockets. Prior to implantation grafts were soaked for 20 minutes in sterile antibiotic solutions. The pockets were closed by means of skin clips and saline solution (1 mL) containing methicillin-resistant S. aureus (MRSA) or S. epidermidis (MRSE) at a concentration of 2×10^7 colony-forming units (CFU)/mL was inoculated onto the graft surface by using a tuberculin syringe to create a subcutaneous fluid-filled pocket. The animals were returned to individual cages and thoroughly examined daily. All grafts were explanted at 7 days following implantation.
(§6) Assessment of the infection: The explanted grafts were placed in sterile tubes, washed in sterile saline solution, placed in tubes containing 10 mL of phosphate-buffered saline solution and sonicated for 5 minutes to remove the adherent bacteria from the grafts (Balaban, N. et al, 2003. Kidney Int. 63: 340-345). Quantitation of viable staphylococci was performed by culturing serial dilutions (0.1 mL) of the bacterial suspensions on blood agar plates at 37 degrees centigrade for 48 hours. The organisms were quantitated by counting the number of colony-forming units (CFUs) per plate. The limit of detection for this method was approximately 10 CFU/mL.
as §3

[3] = tested on: methicillin-resistant S. aureus (MRSA); type: in vivo; conditions: rats, MRSA challenge
Excerpt: as §4, §5, §6, §3

[4] = tested on: Methicillin-resistant S. aureus ATCC 43300; test: MIC by microbroth dilution method, MRSA; type: cell-based; conditions: broth-micro dilution
Description: as §1, §2, §3

S. aureus cells = test: Bacterial growth (CFU) of S. aureus culture grown with peptides; type: cell-based; conditions: in-vitro culture grown 2.5 hours with peptide, FIG. 5a
Description: (§7) RNAIII synthesis and bacterial growth: Cultures of S. aureus (20 million cells in a volume of 30 microliters) containing an expression construct for expression of the fusion protein maiii::blaZ (described in Gov, Y. et al., 2001. Peptides. 22: 1609-20 were grown for 2.5 hours with 5 microliters peptide solution or control buffer. A 5 microliter sample was taken from the cultures, diluted in saline, and streaked on LB agar plates to quantitate CFUs. The remainder of the cultures were used to determine RNAIII synthesis (beta-lactamase activity). This was performed by adding a substrate of beta-lactamase (nitrocefin), and determining OD 490 nm/OD 650 nm, as previously described (Gov, Y. et al., 2001. Peptides. 22: 1609-20).

RNAIII synthesis = RNAIII synthesis (beta-lactamase reporter, nitrocefin); type: cell-based, S. aureus; conditions: FIG. 5b; at high peptide concentrations mostly attributable to cell death
Description: as §7

[5] = graft pre-soaked with 5 micrograms/mL rifampin alone
[6] = graft pre-soaked with 5 micrograms/mL rifampin alone, 7 days
[7] = graft presoaked in 10 micrograms/mL peptide, explanted at 7 days
[8] = graft presoaked in 20 micrograms/mL peptide, explanted at 7 days
[9] = graft presoaked in 50 micrograms/mL peptide, explanted at 7 days

Compound	MIC ([1]; Staphylococcus epidermidis, read-out: MIC)	Reduction in numbers of PFUs compared to control [2, 5]	Graft bacterial load (quantitative culture) [2, 6]	Reduction in bacterial CFU compared to control [3, 5]	Graft bacterial load (quantitative culture) [3, 6]	MIC ([4]; Staphylococcus aureus, read-out: MIC)	Bactericidal activity (CFU counts) (S. aureus cells)	MIC [1]	Graft bacterial load (quantitative culture) [2, 7]	Graft bacterial load (quantitative culture) [2, 8]	Graft bacterial load (quantitative culture) [2, 9]	Graft bacterial load (quantitative culture) [3, 7]	Graft bacterial load (quantitative culture) [3, 8]	Graft bacterial load (quantitative culture) [3, 9]	MIC [4]	Inhibition of RNAIII synthesis (RNAIII synthesis)
CO[C@H]1/C=C/O[C@@]2(C)Oc3c(C)c(O)c4c(O)c(c(/C=N/N5CCN(C)CC5)c(O)c4c3C2=O)NC(=O)/C(C)=C\C=C\[C@H](C)[C@H](O)[C@@H](C)[C@@H](O)[C@@H](C)[C@H](OC(C)=O)[C@@H]1C [rifampin]	0.5 µg/mL (≈ 0.608 µM)	about 50%	8.8×10^2±3.0×10^2 CFU/mL	about 50%	6.7×10^3±9.1×10^2 CFU/mL	0.5 µg/mL (≈ 0.608 µM)										
YSPWTNF (YSPWTNF-NH2) [RIP]							virtually inactive	> 128 micrograms/mL	6.9×10^3±1.9×10^3 CFU/ml	8.5×10^2±2.0×10^2 CFU/ml	3.9×10^1±1.6×10^1 CFU/ml	4.1×10^4±7.1×10^3 CFU/ml	5.9×10^3±1.7×10^3 CFU/ml	8.4×10^1±3.6×10^1 CFU/ml	> 128 micrograms/mL	efficiently inhibited RNAIII synthesis
